We go through four compounds from patent US20120258938A1, “Enzymatic Production or Chemical Synthesis and Uses for 5,7-Dienes and UVB Conversion Products Thereof” (priority 2008, published 2012).

The subject of one assay is CYP27B1. The assay can be described thus: Real-time RT PCR CYP27B1 mRNA, normal epidermal keratinocytes. Particulars: 10^−8 M. The assay is classed as cell-based, human. The method, then: (§1) RNA was extracted using an Absolutely RNA RT-PCR Miniprep Kit (Stratagene, La Jolla, Calif.). Real time PCR and reverse transcription products were purchased from Applied Biosystems, Foster City, Calif. Reverse transcription was performed using Taqman® Reverse Transcription Reagents. The following PCR products were used: cytokeratin 14: Hs00265033_m1, involucrin: Hs00846307_s1, CYP27A1: Hs00168003_ml, CYP27B1: Hs00168017_ml, 18SrRNA: Hs99999901_s1. The reaction was performed with Taqman® Universal PCR Master Mix; data were collected on an ABI Prism 7700 and analyzed on Sequence Detector 1.9.1. Specific gene amounts were related to 18SrRNA by comparative CT method.

The subject of a further assay is CYP24 promoter. The assay can be described thus: CYP24-Luc reporter in normal epidermal keratinocytes. The assay is classed as cell-based, human. Particulars: 24 h. The text has this:
The CYP24-Luc construct was a generous gift from Dr Tai Cheng (Boston University Medical Campus, Core Lab Director). It was originally developed by Vaisanen et al. (27). The details of the pLuc construct have been described previously (28-29). Normal epidermal keratinocytes were transfected using Lipofectamine Plus (Invitrogen, Carlsbad, Calif.) in Epilife medium with firefly luciferase reporter gene plasmid and with phRL-TK (expresses Renilla luciferase and serves as normalization control; Promega, Madison, Wis.). After transfection, cells were incubated for 24 hours in EpiLife medium with HKGS. Cells were then transferred to fresh media containing the compounds to be tested or vehicle (ethanol) and incubated for 24 hours. The firefly luciferase and Renilla luciferase signals were recorded with a TD-20/20 luminometer (Turner Designs, Sunnyvale, Calif.); background luminescence was subtracted and the resulting promoter-specific firefly signal was divided by the Renilla signal (proportional to the number of transfected cells). The values obtained were divided by the mean of control (untreated) cells.

For assay [1], the system named is normal epidermal keratinocytes. Kind of assay: Flow cytometry DNA content, normal epidermal keratinocytes. The settings on record: 10 nM. It counts as cell-based, human. (In general: A flow cytometer gives signals particle by particle.)
For another assay, the system named is involucrin. The assay can be described thus: Real-time RT PCR involucrin mRNA, normal human epidermal keratinocytes. The assay is classed as cell-based. Particulars: 10^−8 M. As to the method: as §1
The subject of assay [2] is anti-CD3 stimulated DBA/1 Lac J spleen cells. Kind of assay: Cytokine/chemokine production by anti-CD3 stimulated spleen cells (Luminex). The assay is classed as cell-based, mouse. Particulars: 5 days; for G-CSF / GM-CSF / IFNγ / IL-1α / IL-6 / IL-10 / IL-17 / IP-10 / KC / MCP-1: spleen cells + anti-CD3 (4 μg/ml) + analogue 10^−7 M, supernatant, one mouse; for Th2 cytokine (IL-10) production: anti-CD3, 10^−7 M. The method, then:
Vitamin D analogues were solubilzed in absolute alcohol (EtOH) and added at 1:100 dilution to cultures of spleen cells from normal DBA/1 Lac J mice (Table 13). […] Therefore, changes are not due to decreased cell viability.
Spleen cells from three normal 8 wk old female DBA/1 Lac J mice were cultured in 96 well tissue culture plates in quadruplicate at 2×10^6 cells/ml in RPMI 1640 medium containing 9% FCS with and without anti-CD3 (4 μg/ml) and with anti-CD3+10^−7M natural vitamin D analogues for 5 days after which time supernatants were harvested and subjected to cytokine multiplex on a Luminex instrument using Milliplex Mouse Kit (values are pg/ml). The general trend in changes in cytokine levels were similar for each of the mice but some produced different levels of each cytokine for each culture additions. Data from one mouse are given and bold numbers indicate those that changed from anti-CD3 stimulated culture with vitamin D analogues added. There was no significant stimulation of IL-1 g, IL-2, IL-4, IL-5, IL-7, IL-9, IL-12 p70, IL-13, IL-15, MIP-2, RANTES or TNFα with the anti-CD3 MOAB.

The test system of another assay is CYP27A1. The assay can be described thus: Real-time RT PCR CYP27A1 mRNA, normal epidermal keratinocytes. It counts as cell-based, human. Particulars: 10^−8 M. The method, then:
as §1

Assay [3] has as its system human dermal fibroblast line. The assay can be described thus: TGF-b1 induced hyaluronan synthesis by dermal fibroblasts. It counts as cell-based. The text has this:
There were found no significant differences in fibroblast numbers per well and no significant differences in trypan blue exclusion between control wells vs those with secosteroids range 95-100% (data not shown).

A further assay deals with NFκB. The assay can be described thus: NFκB-Luc reporter in HaCaT keratinocytes. Particulars: 100 nM. The assay is classed as cell-based, human. The method, then: HaCaT keratinocytes were transfected with NFκB-Luc construct using Lipofectamine Plus (Invitrogen, Carlsbad, Calif.) in DMEM medium with firefly luciferase reporter gene plasmid and with phRL-TK (expresses Renilla luciferase and serves as normalization control; Promega, Madison, Wis.). After transfection cells were incubated for 24 h in complete medium, and then after change to fresh media treated with drug or vehicle (ethanol) at the concentration of 10 nM for 30 minutes, 1 h, 4 h, 16 h and 24 h. The firefly luciferase and Renilla luciferase signals were recorded with a TD-20/20 luminometer (Turner Designs, Sunnyvale, Calif.); background luminescence was subtracted and the resulting promoter specific firefly signal was divided by the Renilla signal (proportional to the number of transfected cells). The values obtained were divided by the mean of control (untreated) cells.

Assay [4] deals with SK Mel 188 human melanoma cells. Kind of assay: Soft agar colony formation, SKMEL 188 melanoma. It counts as cell-based. As to the method: Growth and survival of prostate cancer cells (PC3) and melanoma cells SKMEL 188 and AbC1 was determined by following their ability to form colonies in soft agar. Cells growing in monolayer culture were trypsinized and resuspended (1,000 cells/well) in 0.25 ml medium containing 0.4% agarose and 5% charcoal stripped serum (HyClone).
Cell suspensions were added to 0.8% agar layer in 24 well plates. […] Each condition was tested in quadruplicate. An ethanol solvent control (amount of ethanol equivalent to test) as well as a media-only control was included in the assay. Cells were allowed to grow at 37° with 5% CO2 over two weeks with secosteroids in fresh media (100 μL) being added after every 72 h. Soft agar colonies were scored and stained with 0.5 mg/ml MTT reagent (Promega), 500 μL/well after two weeks. Colonies were then counted under the microscope and number of units was calculated as number of colonies formed divided by the number of cells seeded×100.

Take `C=C1/C(=C\C=C2/CCC[C@]3(C)[C@@H]([C@H](C)CCCC(C)(C)O)CC[C@@H]23)C[C@@H](O)C[C@@H]1O` [1α,25-dihydroxycholecalciferol, (5Z,7E)-9,10-secocholesta-5,7,10(19)-triene-1α,3β,25-triol, reference compound]: in the assay on CYP27B1 (1 h), the “inhibition of CYP27B1 expression” value is roughly 1.5 fold. In addition, in the assay on CYP24 promoter, the “stimulation of transcriptional activity of the CYP24 promoter” value is roughly 21 fold. Besides, in assay [1] (24 h), the “cells in G1/0” value is 52±2%, the “cells in G2/M” value turned out to be 35±5% and the “cells in S phase” value is 13±7%. For the same compound, in the assay with involucrin (6 h), the “stimulation of involucrin mRNA” value is roughly 3.1 fold. In addition, in assay [2], the G-CSF is 11 pg/mL, the GM-CSF was found to be 7 pg/mL, the IFNγ worked out at 0 pg/mL and the IL-1α was 1 pg/mL. Further, in assay [2], the IL-6 stood at 12 pg/mL, the IL-10 stood at 1 pg/mL, the IL-17 was found to be 1 pg/mL and the IP-10 amounted to 5 pg/mL. In addition, in assay [2], the KC came to 3 pg/mL and the MCP-1 turned out to be 197 pg/mL. Moreover, in the assay on CYP27A1 (24 h), the “inhibition of CYP27A1 expression” value is given as roughly 2.9 fold. In [3] (10^−10 M), the “TGF-b1 induced hyaluronan synthesis” value was “inhibited TGF-b1 induced hyaluronan synthesis”.

In the case of `C=C1CC[C@H](O)C/C1=C/C=C1\CCC[C@@]2(C)[C@H]1CC[C@@H]2[C@@](C)(O)CCCC(C)C` [20(OH)D3, (5Z,7E)-9,10-secocholesta-5,7,10(19)-triene-3β,20-diol], the “inhibition of CYP27B1 expression” value in the assay with CYP27B1 (1 h) is on record as roughly 4 fold. Also, the “inhibition of CYP27B1 expression” value in the assay with CYP27B1 (48 h) is roughly 2 fold. In the assay with CYP24 promoter, the “stimulation of transcriptional activity of the CYP24 promoter” value is roughly 2.5 fold. Besides, in assay [1] (48 h), the “cells in G1/0” value was 52±5%, the “cells in G2/M” value is recorded as 35±8% and the “cells in S phase” value amounted to 13±12%. Further, the “stimulation of involucrin mRNA” value in the assay with involucrin (6 h) is listed as 4.7 fold. The “stimulation of involucrin mRNA” value in the assay on involucrin (24 h) is recorded as 1.8 fold. Further, in [2], the “Th2 cytokine (IL-10) production” value is on record as “increased”, the G-CSF is 10 pg/mL, the GM-CSF was determined as 51 pg/mL and the IFNγ was determined as 494 pg/mL. Also, in assay [2], the IL-1α is 8 pg/mL, the IL-6 was 55 pg/mL, the IL-10 was 37 pg/mL and the IL-17 came to 59 pg/mL. In assay [2], the IP-10 is 83 pg/mL, the KC was found to be 39 pg/mL and the MCP-1 turned out to be 100 pg/mL. Further, the “inhibition of CYP27A1 expression” value in the assay with CYP27A1 (24 h) is given as roughly 3.5 fold. In the assay with CYP27A1 (48 h), the “inhibition of CYP27A1 expression” value is listed as roughly 2.6 fold.

`C=C1CC[C@H](O)C/C1=C/C=C1\CCC[C@]2(C)[C@@H](C(C)(O)CC(O)CC(C)C)CC[C@@H]12` (stereo partly drawn) [20,23-dihydroxycholecalciferol, (5Z,7E)-9,10-secocholesta-5,7,10(19)-triene-3β,20,23-triol]: the NFκB-Luc activity result with NFκB was “inhibition”. In assay [2], the “Th2 cytokine (IL-10) production” value is “increased”, the G-CSF was found to be 103 pg/mL, the GM-CSF stood at 47 pg/mL and the IFNγ was 271 pg/mL. In addition, in [2], the IL-1α is 11 pg/mL, the IL-6 amounted to 40 pg/mL, the IL-10 is 56 pg/mL and the IL-17 worked out at 57 pg/mL. In assay [2], the IP-10 turned out to be 96 pg/mL, the KC amounted to 47 pg/mL and the MCP-1 turned out to be 182 pg/mL. Besides, in assay [4] (Sk Mel 188, 0.1 nM and 100 nM), the “less colonies bigger than 0.5 mm” value is “approximately 50%”.

In the case of `C=C1CC[C@H](O)C/C1=C/C=C1\CCC[C@]2(C)[C@@H](C(C)=O)CC[C@@H]12` [pD3, (5Z,7E)-3β-hydroxy-9,10-secopregna-5,7,10(19)-trien-20-one], in the assay on NFκB, the NFκB-Luc activity result was “inhibits NFκB-Luc activity”. Besides, in assay [4] (SKMEL-188, dose dependent), the “colony formation on soft agar” value is given as “suppress colony formation on soft agar”. The “Hyaluronan CPM/Well (mean ± SEM) × 10^−5 FB” value in [3] (hrTGF-b1 5 ng/ml, secosteroids at 10^−10M) is on record as 135 ± 25 CPM/Well × 10^−5 FB.
